Results: patent publication US20160002204A1 (Board of Regents, The University of Texas System, priority 2014, published 2016)

What was measured:
[1] = target: T1, GLS1 (purified recombinant human GAC) (Homo sapiens, UniProt O94925); assay: GLS1 enzymatic activity assay (dual-coupled, Amplex UltraRed/resorufin); assay type: biochemical
T1 sequence (O94925 55-598 isoform O94925-3 limits assumed): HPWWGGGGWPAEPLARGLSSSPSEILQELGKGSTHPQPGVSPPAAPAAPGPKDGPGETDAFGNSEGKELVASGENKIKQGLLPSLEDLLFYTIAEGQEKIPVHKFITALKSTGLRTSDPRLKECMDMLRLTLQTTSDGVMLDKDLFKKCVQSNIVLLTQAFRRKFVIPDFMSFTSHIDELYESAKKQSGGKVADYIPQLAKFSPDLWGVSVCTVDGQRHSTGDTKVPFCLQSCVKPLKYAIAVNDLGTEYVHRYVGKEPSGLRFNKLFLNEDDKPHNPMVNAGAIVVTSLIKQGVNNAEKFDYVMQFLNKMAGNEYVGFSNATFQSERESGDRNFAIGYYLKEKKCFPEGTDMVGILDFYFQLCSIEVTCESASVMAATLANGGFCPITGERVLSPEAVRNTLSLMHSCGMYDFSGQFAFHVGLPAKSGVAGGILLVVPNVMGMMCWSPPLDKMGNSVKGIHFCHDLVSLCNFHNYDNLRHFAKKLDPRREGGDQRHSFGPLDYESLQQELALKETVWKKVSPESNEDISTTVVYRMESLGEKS
In short: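 GAC activity measured by coupling glutamate to glutamate oxidase and HRP, generating resorufin from Amplex UltraRed. Enzyme (2 nM) preincubated with 50 mM potassium phosphate 10 min at room temperature, then inhibitor 10 min; 1 mM glutamine substrate, 1% DMSO. Fluorescence 530/590 nm, kinetic or 20-min endpoint; IC50 from four-parameter logistic fit.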

A549 cells = assay: A549 proliferation (viability) assay, Cell Titer Fluor, 72 hours; assay type: cell-based; conditions: Homo sapiens
In short: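 Seed A549 at 1000 cells/well and culture 24 h. Add compound (final DMSO 0.5%) and incubate 72 h at 37 °C. Add Cell Titer Fluor, mix 15 min, incubate 30 min, read fluorescence and fit EC50 by four-parameter logistic.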

IC50 [1]	EC50 (A549 cells)	Compound
< 100 nM	< 100 nM	O=C(Cc1cccc(OC(F)(F)F)c1)Nc1nnc(CCCCn2ccc(NC(=O)CC3CCCC3)c(F)c2=O)s1 [Example 503, 2-cyclopentyl-N-{3-fluoro-2-oxo-1-[4-(5-{2-[3-(trifluoromethoxy)phenyl]acetamido}-1,3,4-thiadiazol-2-yl)butyl]-1,2-dihydropyridin-4-yl}acetamide]
< 100 nM	100 to 500 nM	O=C(Cc1ccccn1)Nc1nnc(CCCCn2ccc(NC(=O)CC3CCCC3)c(F)c2=O)s1 [Example 504, 2-cyclopentyl-N-[3-fluoro-2-oxo-1-(4-{5-[2-(pyridin-2-yl)acetamido]-1,3,4-thiadiazol-2-yl}butyl)-1,2-dihydropyridin-4-yl]acetamide]
< 100 nM	500 to 5000 nM	CC(=O)Nc1nnc(CCCCn2ccc(NC(=O)CC3CCCC3)c(F)c2=O)s1 [Example 505, 2-cyclopentyl-N-{1-[4-(5-acetamido-1,3,4-thiadiazol-2-yl)butyl]-3-fluoro-2-oxo-1,2-dihydropyridin-4-yl}acetamide]
